The structures appear in SMILES notation. Numbering of substitutions follows the chain as printed.

The target in test [1] is T1, Aldo-keto reductase family 1 member B10 (Homo sapiens, UniProt O60218). The experiment in a line: Inhibition of recombinant human AKR1B10 using pyridine-3-aldehyde as substrate.
Test [2] has as its target T2, Aldo-keto reductase family 1 member B1 (Homo sapiens, UniProt P15121). The experiment in a line: Inhibition of recombinant human AKR1B1 using pyridine-3-aldehyde as substrate.
The target in test [3] is T3, Aldo-keto reductase family 1 member A1 (Homo sapiens, UniProt P14550).
T3 sequence (P14550 whole entry): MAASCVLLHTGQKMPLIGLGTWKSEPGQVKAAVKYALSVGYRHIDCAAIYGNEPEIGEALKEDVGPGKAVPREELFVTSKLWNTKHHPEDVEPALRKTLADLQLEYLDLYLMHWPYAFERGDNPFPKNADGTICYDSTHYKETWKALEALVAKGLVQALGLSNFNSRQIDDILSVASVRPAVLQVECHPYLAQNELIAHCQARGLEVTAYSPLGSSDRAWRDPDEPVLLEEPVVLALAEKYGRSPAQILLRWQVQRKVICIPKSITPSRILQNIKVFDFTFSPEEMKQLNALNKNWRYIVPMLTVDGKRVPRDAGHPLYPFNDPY
The experiment in a line: Inhibition of recombinant human AKR1A1 using pyridine-3-aldehyde as substrate.

The target of test [4] is T4, Aldo-keto reductase family 1 member C1 (Homo sapiens, UniProt Q04828).
T4 sequence (Q04828 whole entry): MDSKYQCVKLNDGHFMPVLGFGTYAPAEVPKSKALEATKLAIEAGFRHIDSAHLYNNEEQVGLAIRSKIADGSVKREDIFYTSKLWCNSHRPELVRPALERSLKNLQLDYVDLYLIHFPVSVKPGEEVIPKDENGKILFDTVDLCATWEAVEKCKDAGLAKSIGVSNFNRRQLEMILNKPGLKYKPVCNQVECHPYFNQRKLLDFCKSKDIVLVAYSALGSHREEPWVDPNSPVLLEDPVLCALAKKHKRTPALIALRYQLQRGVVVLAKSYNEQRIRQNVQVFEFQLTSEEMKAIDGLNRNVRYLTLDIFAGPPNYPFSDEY
The experiment in a line: Inhibition of recombinant human AKR1C1 using S-tetralol as substrate.

Test [5] has as its target T5, Aldo-keto reductase family 1 member C2 (Homo sapiens, UniProt P52895).
T5 sequence (P52895 whole entry): T4 sequence (Q04828 whole entry) with T38V, R47H, L54V, C87S, V151M, R170H, Q172L
The experiment in a line: Inhibition of recombinant human AKR1C2 using S-tetralol as substrate.

For test [6], the target named is T6, Aldo-keto reductase family 1 member C3 (Homo sapiens, UniProt P42330).
T6 sequence (P42330 whole entry): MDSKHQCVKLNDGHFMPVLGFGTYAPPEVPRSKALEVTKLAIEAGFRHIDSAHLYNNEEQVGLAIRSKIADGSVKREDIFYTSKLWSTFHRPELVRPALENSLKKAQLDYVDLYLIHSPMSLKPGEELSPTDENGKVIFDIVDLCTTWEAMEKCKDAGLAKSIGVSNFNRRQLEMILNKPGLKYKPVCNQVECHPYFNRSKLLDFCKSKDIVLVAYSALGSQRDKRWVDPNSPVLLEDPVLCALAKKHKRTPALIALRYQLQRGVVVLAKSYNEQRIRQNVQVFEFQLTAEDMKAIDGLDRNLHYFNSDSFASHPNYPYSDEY
The experiment in a line: Inhibition of recombinant human AKR1C3 using S-tetralol as substrate.

Test [7] deals with T7, Aldo-keto reductase family 1 member C4 (Homo sapiens, UniProt P17516).
T7 sequence (P17516 whole entry): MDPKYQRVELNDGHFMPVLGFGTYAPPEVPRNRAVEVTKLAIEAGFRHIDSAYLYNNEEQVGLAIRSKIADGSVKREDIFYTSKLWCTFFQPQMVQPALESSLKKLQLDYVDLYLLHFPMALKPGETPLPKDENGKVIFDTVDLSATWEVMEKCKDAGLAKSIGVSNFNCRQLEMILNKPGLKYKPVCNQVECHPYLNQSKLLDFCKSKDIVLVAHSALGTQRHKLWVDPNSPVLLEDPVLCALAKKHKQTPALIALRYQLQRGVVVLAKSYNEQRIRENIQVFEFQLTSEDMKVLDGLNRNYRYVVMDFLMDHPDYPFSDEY
The experiment in a line: Inhibition of recombinant human AKR1C4 using S-tetralol as substrate.

The target in test [8] is T8, Carbonyl reductase [NADPH] 1 (Homo sapiens, UniProt P16152).
T8 sequence (P16152 whole entry): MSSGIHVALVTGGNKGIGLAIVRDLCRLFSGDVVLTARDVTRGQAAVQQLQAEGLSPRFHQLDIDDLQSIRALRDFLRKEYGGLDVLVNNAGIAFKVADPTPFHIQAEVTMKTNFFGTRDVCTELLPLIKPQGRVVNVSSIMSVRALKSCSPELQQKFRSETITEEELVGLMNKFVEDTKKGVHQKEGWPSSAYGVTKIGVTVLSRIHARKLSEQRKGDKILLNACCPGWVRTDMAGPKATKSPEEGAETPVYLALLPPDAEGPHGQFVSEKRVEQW
The test is described as follows: Inhibition of recombinant human CBR1 using isatin as substrate.

Test [9] has as its target T1, Aldo-keto reductase family 1 member B10. The experiment in a line: Competitive inhibition of recombinant human AKR1B10 in presence of geraniol as substrate by Lineweaver-Burk plot method.
Test [10] is described as follows: Competitive inhibition of recombinant human AKR1B10 Lys125Leu mutant in presence of geraniol as substrate by Lineweaver-Burk plot method.
Test [11] in a line: Competitive inhibition of recombinant human AKR1B10 Trp220Tyr mutant in presence of geraniol as substrate by Lineweaver-Burk plot method.
The nature of test [12]: Competitive inhibition of recombinant human AKR1B10 Val301Leu mutant in presence of geraniol as substrate by Lineweaver-Burk plot method.
A short description of test [13]: Competitive inhibition of recombinant human AKR1B10 Gln303Ser mutant in presence of geraniol as substrate by Lineweaver-Burk plot method.
For test [14], the target named is T1, Aldo-keto reductase family 1 member B10. The experiment in a line: Inhibition of human recombinant AKR1B10 (1 to 316 residues) expressed in Escherichia coli using pyridine-3-aldehyde as substrate.
In test [15] the target is T2, Aldo-keto reductase family 1 member B1. The experiment in a line: Inhibition of human recombinant AKR1B1 (1 to 316 residues) expressed in Escherichia coli using pyridine-3-aldehyde as substrate.
Test [16] addresses T1, Aldo-keto reductase family 1 member B10. The experiment in a line: Inhibition of AKR1B10 (unknown origin).
Test [17] concerns the target T2, Aldo-keto reductase family 1 member B1. The test is described as follows: Inhibition of AKR1B1 (unknown origin).
Test [18] addresses T1, Aldo-keto reductase family 1 member B10. The experiment in a line: Inhibition of recombinant human intestinal N-terminal 6-His-tagged AKR1B10 expressed in Escherichia coli BL21 (DE3) pLysS cells using pyridine-3-aldehyde as substrate by fluorescence assay.
Test [19] concerns the target T2, Aldo-keto reductase family 1 member B1. The test is described as follows: Inhibition of recombinant human AKR1B1 using pyridine-3-aldehyde as substrate by fluorescence assay.

T1 sequence (O60218 whole entry): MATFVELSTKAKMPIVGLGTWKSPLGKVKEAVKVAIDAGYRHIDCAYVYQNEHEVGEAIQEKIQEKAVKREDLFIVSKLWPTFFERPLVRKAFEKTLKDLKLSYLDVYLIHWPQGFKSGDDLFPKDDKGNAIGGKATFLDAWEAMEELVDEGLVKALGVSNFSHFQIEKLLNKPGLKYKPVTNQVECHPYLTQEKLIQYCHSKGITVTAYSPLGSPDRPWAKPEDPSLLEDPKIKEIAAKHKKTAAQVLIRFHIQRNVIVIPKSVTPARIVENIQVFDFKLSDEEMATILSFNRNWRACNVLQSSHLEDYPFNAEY

The IC50 is the concentration that inhibits the measured activity by half. Turning to `O=C(NCCc1ccc(O)cc1)c1cc2ccc(O)cc2oc1=O`, the IC50 in test [1] came out at 20 nM; in test [2], 98 nM.
For `O=C(NCCCc1cccc(F)c1)c1cc2ccc(O)cc2oc1=O` the same measures were 6 nM and 340 nM.
With `Cc1ccc(CCCNC(=O)c2cc3ccc(O)cc3oc2=O)cc1`, the values for the IC50 in [1] and in test [2] were 7 nM and 200 nM, respectively.
With `O=C(NCCCc1cc(F)cc(F)c1)c1cc2ccc(O)cc2oc1=O`, the IC50 in test [1] was determined as 7.8 nM; in [2], 320 nM.
`O=C(NCCCCc1ccc(O)cc1)c1cc2ccc(O)cc2oc1=O`: the results for the IC50 in [1] and in test [2] were 11 nM and 314 nM, respectively.
For `O=C(NCCCc1cccc(O)c1)c1cc2ccc(O)cc2oc1=O`, the IC50 in test [1] turned out to be 8.3 nM; in test [2] it was 180 nM.
With `O=C(NCCCc1ccc(O)cc1)c1cc2cccc(O)c2oc1=O`, the IC50 amounted to 1500 nM in test [1] and 9500 nM in test [2].
In general, Ki refers to the equilibrium dissociation constant of an inhibitor or competing ligand from its target. In the case of `O=C(NCCCc1ccc(O)cc1)c1cc2ccc(O)cc2oc1=O`, the IC50 in test [1] came to 4.2 nM; in test [2], 204 nM; in test [3] it was 1500 nM; in [4], 950 nM; in test [5], 970 nM; in test [6] it was 1600 nM. Further, the figures for the IC50 in test [7] and in test [8] were 820 nM and 4200 nM, respectively. Moreover, the Ki is 2.3 nM in test [9]; 6.9 nM in test [10]; 14 nM in test [11]; 9.8 nM in test [12]; 2.5 nM in test [13].
Consider `C[C@@]12CCC[C@H]1[C@@H]1C[C@@H](O)[C@@]3(O)C[C@@H](O)CC[C@]3(CO)[C@H]1CC2`, for which the IC50 was 830 nM in test [14] and over 100000 nM in [15].
For the compound `COc1ccc(CCCNC(=O)c2cc3ccc(O)cc3oc2=O)cc1`, the results for the IC50 in [1] and in test [2] were 11 nM and 390 nM, respectively.
With `COc1ccc(/N=c2\oc3cc(O)ccc3cc2C(=O)NCCCc2cccc(O)c2)cc1`, the IC50 amounted to 7.5 nM in test [1] and 15 nM in [2].
For the compound `O=C(NCCCc1ccc(F)cc1)c1cc2ccc(O)cc2oc1=O`, the IC50 in test [1] amounted to 3.5 nM; in test [2], 277 nM; in test [3], 1700 nM; in [4] it was 12000 nM; in [5] it was 610 nM; in [6], 470 nM. For the same compound, the IC50 in test [7] is 350 nM; in test [8], 1100 nM.
`O=C(NCCCc1ccc(O)cc1)c1cc2ccccc2oc1=O`: the IC50 in [1] was 2700 nM; in [2], over 10000 nM.
For `O=C(NCCCc1ccccc1O)c1cc2ccc(O)cc2oc1=O`, the results for the IC50 in [1] and in [2] were 6.4 nM and 220 nM, respectively.
Turning to `O=C(/C=C/c1ccc(O)cc1)CC(=O)/C=C/c1ccc(O)cc1` [BISDEMETHOXYCURCUMIN], the values for the IC50 in test [16] and in [17] were 60 nM and 5100 nM, respectively.
Turning to `C[C@H](CCC(=O)O)[C@H]1CC[C@H]2[C@@H]3CC[C@@H]4C[C@@H](O)CC[C@]4(C)[C@H]3CC[C@]12C` [ISOLITHOCHOLIC ACID], the results for the IC50 in [18] and in [19] were 27 nM and 6900 nM, respectively.

These data come from ChEMBL document CHEMBL4017540, “Synthesis of Potent and Selective Inhibitors of Aldo-Keto Reductase 1B10 and Their Efficacy against Proliferation, Metastasis, and Cisplatin Resistance of Lung Cancer Cells” (J Med Chem, 2017).
